{
  "source": "patent US20120035356A1",
  "about": "“Hydroxycarboxylic Acids and Salts” (priority 2006, published 2012)",
  "key": {"[1]": {"settings": "cited from earlier work"}, "Water solubility": {"assay": "Water solubility", "type": "physicochemical", "settings": "at the higher pH"}, "[2]": {"assay": "Corrosion test NACE TM0169-95 modified by PNS, steel coupons in 3% NaCl solution", "design": "Percent Effectiveness: scale not given: direction of the effect not stated beside the values", "settings": "Table 1; for Corrosion rate MPY: 72 h; for Percent Effectiveness: NaCl control 100%, water 0%, lower is better, 30% or less acceptable (PNS); for Corrected corrosion rate MPY^1: distilled water MPY subtracted", "method": "Corrosion tests were performed according to the National Association of Corrosion Engineers (NACE) Standard TM0169-95 modified by the Pacific Northwest Snowfighters (PNS) (NACE TM0169-95).\nThe test procedure was modified to use 30 mL of a 3% solution of inhibitor per square inch of total coupon surface area. Stamped and numbered steel TSI coupons which met the ASTM F436 Type 1 requirement with a Rockwell hardness of C 38-45 were used for each corrosion test. Approximate coupon dimensions are 1.37 in. outer diameter, 0.60 in. inner diameter, and 0.10 in. thickness with a density of 7.85 grams per cubic centimeter. Coupons were placed in a sealed container on a rock tumbler with a non-abrasive cleanser for 30 minutes to remove surface grease and impurities. Coupons were wiped with acetone to remove any additional grease, rinsed with deionized water, and then acid etched with an 18.5% HCl solution for approximately 3 minutes. The coupons were rinsed with tap water, rinsed with deionized water, patted dry and placed in chloroform for 15 minutes. The coupons were removed from chloroform and allowed to air dry in a ventilated hood for 1 hour. Each coupon was then weighed to the nearest 0.1 mg. at least two times to ensure a consistent weight.\nDistilled water was used to prepare each solution and control standard. Sodium chloride was used as the salt standard. A 3% solution of NaCl (EMD, analyzed reagent grade, 9.6 g) in distilled water (310.4 g) was prepared as a salt standard (w/v). Each test solution was prepared with 3% NaCl, 310.4 g distilled water, and a corrosion inhibitor. Two NaCl salt solutions containing each inhibitor were prepared at 3% and 1.5% inhibitor concentration (by weight of salt, 288 mg and 144 mg, respectively). Approximately 300 mL of each solution in distilled water was transferred to a clean 500 mL Erlenmeyer flask equipped with a rubber stopper which had been drilled to allow a thin line attached to a plastic rod to run through it. The pH of each solution was measured and recorded. Aqueous 5% sodium hydroxide was carefully added (1-2 drops) until a basic pH was established for each test solution. The pH of the NaCl and H2O control solutions was not altered. Three coupons were attached to a plastic bar suspended within each flask through the stopper hole. A timed device raised and lowered the test coupons so they were immersed in the test solution for 10 minutes of each hour for a 72 hour period. Tests were conducted at room temperature.\nAfter the 72 h. test period, the coupons were quickly removed from solution, rinsed under tap water and vigorously rubbed to remove any surface corrosion material. The coupons were then placed in shallow evaporating dishes containing a cleaning solution of concentrated hydrochloric acid, stannous chloride (50 g/liter), and antimony chloride (20 g/liter) for 15 minutes. The coupons were removed from the acid solution, rinsed vigorously under tap water, and returned to the cleaning solution for an additional 15 minutes. The coupons were again removed from the acid solution, rinsed under tap water, rinsed under deionized water, patted dry, and placed in a vessel containing chloroform for 10 minutes. The coupons were removed from the chloroform and allowed to air dry under a ventilated hood for 1 hour before being weighed to the nearest 0.1 mg. Each coupon was weighed twice to ensure a true final weight. Corrosion rate in mils per year (MPY) was calculated from the measured weight loss of each coupon using the following equation: […]\nThe corrosion value for the control solution of distilled H2O was also calculated. The MPY value of the distilled water was subtracted from the MPY value of each sample solution containing 3% NaCl to provide a corrected MPY value, which is noted as MPY′."}, "[3]": {"settings": "1.5 weight % inhibitor in 3% NaCl, room temperature, >pH 8 except sodium D-gluconate (pH 6.1)"}, "[4]": {"settings": "1.5 weight % inhibitor in 3% NaCl"}, "[5]": {"settings": "3.0 weight % inhibitor in 3% NaCl, >pH 8 except sodium D-gluconate (pH 6.1) and commercial liquid gluconate product (pH 3.2)"}, "[6]": {"settings": "3.0 weight % inhibitor in 3% NaCl"}},
  "note": "Read-outs that look alike come from different tables or passages of the source.",
  "data": [
    {"smiles": "O=C(O)[C@@H](O)[C@@H](O)[C@H](O)[C@@H](O)C(=O)[O-].[K+]", "note": "[Sample III, monopotassium D-glucarate]", "values": [
      {"measurement": "Water reduction (% of control)", "setting": "Type A (water reducing) trial, admixture dose 2.4-2.5 oz/cwt", "result": "5.04 % of control"},
      {"measurement": "Compressive Strength (% of control)", "setting": "Type A trial, 7 days", "result": "(125%) % of control"},
      {"measurement": "Water reduction (% of control)", "setting": "Type D (water reducing/set retarding) trial, admixture dose 2.9-5.0 oz/cwt", "result": "5.04 % of control"},
      {"measurement": "Compressive Strength (% of control)", "setting": "Type D trial, 7 days", "result": "(117%) % of control"},
      {"measurement": "Compressive Strength (% of control)", "setting": "Type D trial, 28 days", "result": "(118%) % of control"},
      {"measurement": "water solubility", "setting": "[1]", "result": "about 10%"}
    ]},
    {"smiles": "O=C([O-])[C@@H](O)[C@@H](O)[C@H](O)[C@@H](O)C(=O)[O-].[Ca+2]", "note": "[calcium D-glucarate]", "values": [
      {"measurement": "water solubility (in words)", "setting": "[1]", "result": "very insoluble in water"}
    ]},
    {"smiles": "O=C([O-])[C@@H](O)[C@@H](O)[C@H](O)[C@@H](O)C(=O)[O-].[K+].[K+]", "note": "[dipotassium D-glucarate hydrate, dipotassium D-glucarate]", "values": [
      {"measurement": "water solubility (in words)", "setting": "[1]", "result": "readily soluble in water"}
    ]},
    {"smiles": "O=C([O-])[C@H](O)[C@@H](O)[C@H](O)[C@H](O)CO.[Na+]", "note": "[sodium D-gluconate, reference compound]", "values": [
      {"measurement": "water solubility", "setting": "Water solubility", "result": "ca. 60%"},
      {"measurement": "Corrosion rate MPY", "setting": "[2]; [3]", "result": 24.596, "unit": "MPY"},
      {"measurement": "Percent Effectiveness", "setting": "[2]; [4]", "result": 36.98, "unit": "%"},
      {"measurement": "Corrected corrosion rate MPY^1", "setting": "[2]; [4]", "result": 20.313, "unit": "MPY"},
      {"measurement": "Corrosion rate MPY", "setting": "[2]; [5]", "result": 22.786, "unit": "MPY"},
      {"measurement": "Percent Effectiveness", "setting": "[2]; [6]", "result": 33.45, "unit": "%"},
      {"measurement": "Percent Effectiveness", "setting": "[2]; 3.0 weight % inhibitor in 3% NaCl, listed as gluconate", "result": "> 30", "unit": "%"},
      {"measurement": "Corrected corrosion rate MPY^1", "setting": "[2]; [6]", "result": 18.503, "unit": "MPY"}
    ]},
    {"smiles": "O=C([O-])[C@@H](O)[C@@H](O)[C@H](O)[C@@H](O)C(=O)[O-].[K+].[Na+]", "note": "[sodium potassium D-glucarate]", "values": [
      {"measurement": "water solubility (in words)", "setting": "[1]", "result": "readily soluble in water"},
      {"measurement": "water solubility", "setting": "Water solubility", "result": "ca. 70%"},
      {"measurement": "Corrosion rate MPY", "setting": "[2]; [3]", "result": 23.726, "unit": "MPY"},
      {"measurement": "Percent Effectiveness", "setting": "[2]; [4]", "result": 35.28, "unit": "%"},
      {"measurement": "Corrected corrosion rate MPY^1", "setting": "[2]; [4]", "result": 19.443, "unit": "MPY"},
      {"measurement": "Corrosion rate MPY", "setting": "[2]; [5]", "result": 20.939, "unit": "MPY"},
      {"measurement": "Percent Effectiveness", "setting": "[2]; [6]", "result": 29.84, "unit": "%"},
      {"measurement": "Percent Effectiveness", "setting": "[2]; 3.0 weight % inhibitor in 3% NaCl, listed as glucarate", "result": "~30", "unit": "%"},
      {"measurement": "Corrected corrosion rate MPY^1", "setting": "[2]; [6]", "result": 16.656, "unit": "MPY"}
    ]}
  ]
}
